Assay results as given in US12391737B2, “Soluble NPY2 receptor agonists” (Boehringer Ingelheim International GmbH, priority 2020, dated 2025).
Blank lines part the entries; values can stand above or below the compound they belong to.

Tests used:
[1] = target: T1, Human Neuropeptide Y2 Receptor (Homo sapiens, UniProt P49146); assay: Radioligand binding competition assay (RLB); details: Table 3, 125I-PYY(1-36) competition; read-out: Ki
T1 construct: purchased CHEMICON HTS066M
T1 sequence (P49146 1-381): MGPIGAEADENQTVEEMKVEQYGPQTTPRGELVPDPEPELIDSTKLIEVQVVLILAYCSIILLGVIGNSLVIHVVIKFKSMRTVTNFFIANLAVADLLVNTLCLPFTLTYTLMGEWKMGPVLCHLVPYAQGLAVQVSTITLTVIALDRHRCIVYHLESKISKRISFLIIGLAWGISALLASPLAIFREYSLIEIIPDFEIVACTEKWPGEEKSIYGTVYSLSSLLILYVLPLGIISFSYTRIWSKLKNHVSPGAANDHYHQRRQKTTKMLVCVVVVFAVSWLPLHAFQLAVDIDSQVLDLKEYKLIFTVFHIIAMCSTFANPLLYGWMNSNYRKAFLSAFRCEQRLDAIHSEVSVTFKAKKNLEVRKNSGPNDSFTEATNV
Procedure, shortened: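 Filtration competition binding on membranes from cells expressing the receptor, 0.5 μg protein/well, in 50 mM HEPES, 5 mM MgCl2, 1 mM CaCl2, pH 7.4, with 0.2% ovalbumin. Incubation ran 2 h at room temperature, followed by GF/C filtration and scintillation counting. IC50 came from nonlinear sigmoidal fits.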

Solubility determination = details: for Sol6: pH 6; for Sol7: pH 7
Procedure, shortened: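 First, TFA-salt peptide was added to 0.1 M sodium diphosphate (pH 6.4 or 7.0) to 10 mg/ml and shaken 2 h at room temperature. Next, insoluble material was filtered off. Finally, filtrate and control, each 1 mg/ml in 50% acetonitrile, were compared by reversed-phase chromatography.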

SMILES: CC[C@H](C)[C@H](NC(=O)[C@H](CCC(=O)O)NC(=O)[C@H](CCC(=O)O)NC(=O)[C@@H]1CCCN1C(=O)[C@@H](NC(=O)[C@H](C)NC(=O)[C@H](CC(=O)O)NC(=O)[C@H](CCC(=O)O)NC(=O)[C@H](CCC(=O)O)NC(=O)[C@@H]1CCCN1C(=O)[C@H](CCCCNC(=O)CCCCCNC(=O)CC[C@H](NC(=O)CCCCCCCCCCCCCCCCC(=O)O)C(=O)O)NC(=O)[C@H](CCC(=O)O)NC(=O)[C@@H]1CCCN1C(=O)[C@H](C)NC(=O)CC(C)C)[C@@H](C)O)C(=O)N[C@@H](CCC(N)=O)C(=O)N[C@@H](CCCNC(=N)N)C(=O)N[C@@H](Cc1ccc(O)cc1)C(=O)N[C@@H](Cc1ccc(O)cc1)C(=O)N[C@@H](CC(C)C)C(=O)N[C@@H](CO)C(=O)N[C@@H](CC(C)C)C(=O)N[C@@H](CCCNC(=N)N)C(=O)N[C@@H](Cc1c[nH]cn1)C(=O)N[C@@H](Cc1ccc(O)cc1)C(=O)N[C@@H](Cc1ccc(O)cc1)C(=O)N[C@@H](CC(N)=O)C(=O)N[C@@H](Cc1c[nH]c2ccccc12)C(=O)N[C@@H](CC(C)C)C(=O)N[C@H](C(=O)N[C@@H](CCCNC(=N)N)C(=O)N[C@@H](CCC(N)=O)C(=O)N[C@@H](CCCNC(=N)N)C(=O)N[C@@H](Cc1ccc(O)cc1)C(N)=O)[C@@H](C)O [Compound 97, N{alpha-4}-(3-methylbutanoyl)-N{epsilon-7}-(6-[(4S)-4-carboxy-4-(17-carboxyheptadecanamido)butanamido]hexanoyl)-[4A,7K,9E,13T,17I,18Q,22L,28Y,30W,31L]-hPYY(4-36)]
- Ki [1]: 4.23 nM
- Sol6 (Solubility determination): >10.0 mg/mL
- Sol7 (Solubility determination): >10.0 mg/mL

SMILES: CC(C)CC(=O)N[C@@H](C)C(=O)N1CCC[C@H]1C(=O)N[C@@H](CCC(=O)O)C(=O)N[C@@H](CCCCNC(=O)CCCCCNC(=O)CC[C@H](NC(=O)CCCCCCCCCCCCCCCCC(=O)O)C(=O)O)C(=O)N1CCC[C@H]1C(=O)N[C@@H](CCC(=O)O)C(=O)N[C@@H](CCC(=O)O)C(=O)N[C@@H](CC(=O)O)C(=O)N[C@@H](C)C(=O)N[C@H](C(=O)N[C@@H](CC(C)C)C(=O)N[C@@H](CCC(=O)O)C(=O)N[C@@H](CCC(=O)O)C(=O)N[C@@H](CC(C)C)C(=O)N[C@@H](CCC(N)=O)C(=O)N[C@@H](CCCNC(=N)N)C(=O)N[C@@H](Cc1ccc(O)cc1)C(=O)N[C@@H](Cc1ccc(O)cc1)C(=O)N[C@H](C(=O)N[C@@H](CO)C(=O)N[C@@H](CC(C)C)C(=O)N[C@@H](CCCNC(=N)N)C(=O)N[C@@H](Cc1c[nH]cn1)C(=O)N[C@@H](Cc1ccc(O)cc1)C(=O)N[C@@H](Cc1ccc(O)cc1)C(=O)N[C@@H](CC(N)=O)C(=O)N[C@@H](Cc1c[nH]c2ccccc12)C(=O)N[C@@H](CC(C)C)C(=O)N[C@H](C(=O)N[C@@H](CCCNC(=N)N)C(=O)N[C@@H](CCC(N)=O)C(=O)N[C@@H](CCCNC(=N)N)C(=O)N[C@@H](Cc1ccc(O)cc1)C(N)=O)[C@@H](C)O)C(C)C)[C@@H](C)O [Compound 102, N{alpha-4}-(3-methylbutanoyl)-N{epsilon-7}-(6-[(4S)-4-carboxy-4-(17-carboxyheptadecanamido)butanamido]hexanoyl)-[4A,7K,9E,13T,14L,18Q,22V,28Y,30W,31L]-hPYY(4-36)]
- Ki [1]: 7.15 nM
- Sol6 (Solubility determination): 10.0 mg/mL
- Sol7 (Solubility determination): 9.7 mg/mL

SMILES: CC(C)CC(=O)N[C@@H](C)C(=O)N1CCC[C@H]1C(=O)N[C@@H](CCC(=O)O)C(=O)N[C@@H](CCCCNC(=O)CCCCCNC(=O)CC[C@H](NC(=O)CCCCCCCCCCCCCCCCC(=O)O)C(=O)O)C(=O)N1CCC[C@H]1C(=O)N[C@@H](CCC(=O)O)C(=O)N[C@@H](CCC(=O)O)C(=O)N[C@@H](CC(=O)O)C(=O)N[C@@H](C)C(=O)N[C@H](C(=O)N[C@@H](CCC(N)=O)C(=O)N[C@@H](CCC(=O)O)C(=O)N[C@@H](CCC(=O)O)C(=O)N[C@@H](CC(C)C)C(=O)N[C@@H](CCC(N)=O)C(=O)N[C@@H](CCCNC(=N)N)C(=O)N[C@@H](Cc1ccc(O)cc1)C(=O)N[C@@H](Cc1ccc(O)cc1)C(=O)N[C@H](C(=O)N[C@@H](CO)C(=O)N[C@@H](CC(C)C)C(=O)N[C@@H](CCCNC(=N)N)C(=O)N[C@@H](Cc1c[nH]cn1)C(=O)N[C@@H](Cc1ccc(O)cc1)C(=O)N[C@@H](Cc1ccc(O)cc1)C(=O)N[C@@H](CC(N)=O)C(=O)N[C@@H](Cc1c[nH]c2ccccc12)C(=O)N[C@@H](CC(C)C)C(=O)N[C@H](C(=O)N[C@@H](CCCNC(=N)N)C(=O)N[C@@H](CCC(N)=O)C(=O)N[C@@H](CCCNC(=N)N)C(=O)N[C@@H](Cc1ccc(O)cc1)C(N)=O)[C@@H](C)O)C(C)C)[C@@H](C)O [Compound 105, N{alpha-4}-(3-methylbutanoyl)-N{epsilon-7}-(6-[(4S)-4-carboxy-4-(17-carboxyheptadecanamido)butanamido]hexanoyl)-[4A,7K,9E,13T,14Q,18Q,22V,28Y,30W,31L]-hPYY(4-36)]
- Ki [1]: 5.97 nM
- Sol6 (Solubility determination): >10.0 mg/mL
- Sol7 (Solubility determination): 9.9 mg/mL

These reach a lower Ki [1]. Values come first.

- Ki [1]: 2.92 nM
- Sol6 (Solubility determination): 8.9 mg/mL
- Sol7 (Solubility determination): 7.9 mg/mL
SMILES: CC(C)CC(=O)N[C@@H](C)C(=O)N1CCC[C@H]1C(=O)N[C@@H](CCC(=O)O)C(=O)N[C@@H](CCCCNC(=O)CCCCCNC(=O)CC[C@H](NC(=O)CCCCCCCCCCCCCCCCC(=O)O)C(=O)O)C(=O)N1CCC[C@H]1C(=O)N[C@@H](CCC(=O)O)C(=O)N[C@@H](CCC(=O)O)C(=O)N[C@@H](CC(=O)O)C(=O)N[C@@H](C)C(=O)N[C@H](C(=O)N1CCC[C@H]1C(=O)N[C@@H](CCC(=O)O)C(=O)N[C@@H](CCC(=O)O)C(=O)N[C@@H](CC(C)C)C(=O)N[C@@H](CCC(N)=O)C(=O)N[C@@H](C)C(=O)N[C@@H](Cc1ccc(O)cc1)C(=O)N[C@@H](Cc1ccc(O)cc1)C(=O)N[C@H](C(=O)N[C@@H](CO)C(=O)N[C@@H](CC(C)C)C(=O)N[C@@H](CCCNC(=N)N)C(=O)N[C@@H](Cc1c[nH]cn1)C(=O)N[C@@H](Cc1ccc(O)cc1)C(=O)N[C@@H](Cc1ccc(O)cc1)C(=O)N[C@@H](CC(N)=O)C(=O)N[C@@H](Cc1c[nH]c2ccccc12)C(=O)N[C@@H](CC(C)C)C(=O)N[C@H](C(=O)N[C@@H](CCCNC(=N)N)C(=O)N[C@@H](CCC(N)=O)C(=O)N[C@@H](CCCNC(=N)N)C(=O)N[C@@H](Cc1ccc(O)cc1)C(N)=O)[C@@H](C)O)C(C)C)[C@@H](C)O [Compound 95, N{alpha-4}-(3-methylbutanoyl)-N{epsilon-7}-(6-[(4S)-4-carboxy-4-(17-carboxyheptadecanamido)butanamido]hexanoyl)-[4A,7K,9E,13T,18Q,19A,22V,28Y,30W,31L]-hPYY(4-36)]

- Ki [1]: 3.06 nM
- Sol6 (Solubility determination): 8.8 mg/mL
- Sol7 (Solubility determination): 8.7 mg/mL
SMILES: CC(C)CC(=O)N[C@@H](C)C(=O)N1CCC[C@H]1C(=O)N[C@@H](CCC(=O)O)C(=O)N[C@@H](CCCCNC(=O)CCCCCNC(=O)CC[C@H](NC(=O)CCCCCCCCCCCCCCCCC(=O)O)C(=O)O)C(=O)N1CCC[C@H]1C(=O)N[C@@H](CCC(=O)O)C(=O)N[C@@H](CCC(=O)O)C(=O)N[C@@H](CO)C(=O)N[C@@H](C)C(=O)N[C@H](C(=O)N1CCC[C@H]1C(=O)N[C@@H](CCC(=O)O)C(=O)N[C@@H](CCC(=O)O)C(=O)N[C@@H](CC(C)C)C(=O)N[C@@H](CCC(N)=O)C(=O)N[C@@H](CCCNC(=N)N)C(=O)N[C@@H](Cc1ccc(O)cc1)C(=O)N[C@@H](Cc1ccc(O)cc1)C(=O)N[C@H](C(=O)N[C@@H](CO)C(=O)N[C@@H](CC(C)C)C(=O)N[C@@H](CCCNC(=N)N)C(=O)N[C@@H](Cc1c[nH]cn1)C(=O)N[C@@H](Cc1ccc(O)cc1)C(=O)N[C@@H](Cc1ccc(O)cc1)C(=O)N[C@@H](CC(N)=O)C(=O)N[C@@H](Cc1c[nH]c2ccccc12)C(=O)N[C@@H](CC(C)C)C(=O)N[C@H](C(=O)N[C@@H](CCCNC(=N)N)C(=O)N[C@@H](CCC(N)=O)C(=O)N[C@@H](CCCNC(=N)N)C(=O)N[C@@H](Cc1ccc(O)cc1)C(N)=O)[C@@H](C)O)C(C)C)[C@@H](C)O [Compound 96, N{alpha-4}-(3-methylbutanoyl)-N{epsilon-7}-(6-[(4S)-4-carboxy-4-(17-carboxyheptadecanamido)butanamido]hexanoyl)-[4A,7K,9E,11S,13T,18Q,22V,28Y,30W,31L]-hPYY(4-36)]

- Ki [1]: 1.01 nM
- Sol6 (Solubility determination): 9.8 mg/mL
- Sol7 (Solubility determination): 5.7 mg/mL
SMILES: CC[C@H](C)[C@H](NC(=O)[C@H](Cc1ccc(O)cc1)NC(=O)[C@H](Cc1ccc(O)cc1)NC(=O)[C@H](CCCNC(=N)N)NC(=O)[C@H](CCC(N)=O)NC(=O)[C@H](CC(C)C)NC(=O)[C@H](CCC(=O)O)NC(=O)[C@H](CCC(=O)O)NC(=O)[C@@H]1CCCN1C(=O)[C@@H](NC(=O)[C@H](C)NC(=O)[C@H](CC(=O)O)NC(=O)[C@H](C)NC(=O)[C@H](CCC(=O)O)NC(=O)[C@@H]1CCCN1C(=O)[C@H](CCCCNC(=O)CCCCCNC(=O)CC[C@H](NC(=O)CCCCCCCCCCCCCCCCC(=O)O)C(=O)O)NC(=O)[C@H](CCC(=O)O)NC(=O)[C@@H]1CCCN1C(=O)[C@H](C)NC(=O)CC(C)C)[C@@H](C)O)C(=O)N[C@@H](C)C(=O)N[C@@H](CC(C)C)C(=O)N[C@@H](CCCNC(=N)N)C(=O)N[C@@H](Cc1c[nH]cn1)C(=O)N[C@@H](Cc1ccc(O)cc1)C(=O)N[C@@H](Cc1ccc(O)cc1)C(=O)N[C@@H](CC(N)=O)C(=O)N[C@@H](Cc1c[nH]c2ccccc12)C(=O)N[C@@H](CC(C)C)C(=O)N[C@H](C(=O)N[C@@H](CCCNC(=N)N)C(=O)N[C@@H](CCC(N)=O)C(=O)N[C@@H](CCCNC(=N)N)C(=O)N[C@@H](Cc1ccc(O)cc1)C(N)=O)[C@@H](C)O [Compound 100, N{alpha-4}-(3-methylbutanoyl)-N{epsilon-7}-(6-[(4S)-4-carboxy-4-(17-carboxyheptadecanamido)butanamido]hexanoyl)-[4A,7K,9E,10A,13T,18Q,22I,23A,28Y,30W,31L]-hPYY(4-36)]
